Laboratory results from patent US7223888B2, “Mu opioid receptor ligands: methods of use and synthesis” (President and Fellows of Harvard College, priority 2002, dated 2007).
Read-outs that look alike come from different tables or passages of the source.

Tests used:
KOR = molecular target: T1, KOR (Cavia porcellus, UniProt P41144); experiment: Opioid receptor competitive binding assay, KOR (3H-U-69,593); parameters: species or system guinea pig; details: for Ki KOR/Ki MOR: Table 12, selectivity for MOR versus KOR
T1 construct: from tissue; host or cells: guinea pig cerebellum preparation
Procedure: (§1) For selected compounds, Ki for MOR, DOR, and KOR were determined according to the following procedure: Recombinant hMOR-1 membrane preps from stably transfected CHO cells and recombinant hDOR-1 membrane preps from stably transfected HEK-293 cells were purchased from Amersham Biosciences. Guinea pig cerebellum preparations were used for KOR assays.
(§2) Each microassay from an assay plate was filtered through an individual well of a Packard GF/B 96-well filter plate (glass fiber filter) to collect the membranes. Each well was washed twice with 200 μL of ice cold wash buffer (50 mM Tris, pH 7.4). The filter plate was allowed to dry overnight, the back was sealed, and Packard Bioscience Microscint PS scintillation fluid (75 μL) was added to each well, which was then counted for ^3H for 2 minutes using a Packard Bioscience TopCount scintillation counter plate reader.
(§3) Each compound was assayed at 8 concentrations, using half-log serial dilutions. Each concentration was tested in triplicate, and the ^3H cpm were averaged.
(§4) This triplicate experiment was repeated three times for the MOR and twice for the DOR and the KOR.

hMOR-1 = molecular target: T2, hMOR-1 (Homo sapiens, UniProt P35372); experiment: Opioid receptor competitive binding assay, MOR (3H-DAMGO)
T2 construct: purchased Amersham Biosciences; host or cells: stably transfected CHO cells (membrane preparation)
Procedure: as §1, §2, §3
(§5) This concentration was determined experimentally by scintillation counting an aliquot of the radioligand stock solution used in the assay.
(§6) Kd=the binding constant for the radioligand.
as §4

hDOR-1 = molecular target: T3, hDOR-1 (Homo sapiens, UniProt P41143); experiment: Opioid receptor competitive binding assay, DOR; details: for Ki DOR/Ki MOR: Table 12, selectivity for MOR versus DOR (3H-DPDPE, hDOR-1)
T3 construct: purchased Amersham Biosciences; host or cells: stably transfected HEK-293 cells (membrane preparation)
Procedure: as §1, §2, §3, §5, §6, §4

[1] = Ki KOR, Table 9, 3H-U-69,593, guinea pig cerebellum preps, errors two standard deviations
[2] = Ki MOR, Table 3, 3H-DAMGO, hMOR-1 stably transfected into CHO cells, errors 95% confidence interval
[3] = Ki DOR, Table 6, footnote:, hDOR-1 stably transfected into HEK-293 cells, errors two standard deviations

C=CC(O)C(Cc1ccccc1)NC(=O)C(Cc1ccccc1)C(O)/C=C/CC(O)C(N)Cc1ccc(O)cc1 (single isomer, unassigned) [(S,S,R,R)-12, (E)-8-Amino-2-benzyl-3,7-dihydroxy-9-(4-hydroxy-phenyl)-non-4-enoic acid (1-benzyl-2-hydroxy-but-3-enyl)-amide]
Ki (KOR; [1]): 770 ± 130 nM
Ki KOR/Ki MOR (KOR): 35
Ki (hMOR-1; [2]): 22 ± 4 nM
Ki (hDOR-1; [3]): 620 ± 70 nM
Ki DOR/Ki MOR (hDOR-1): 28

NC(=O)C(Cc1ccccc1)NC(=O)C(Cc1ccccc1)C(O)/C=C\CC(O)C(N)Cc1ccc(O)cc1 (single isomer, unassigned) [(S,S,S,R)-9, (Z)-8-Amino-2-benzyl-3,7-dihydroxy-9-(4-hydroxy-phenyl)-non-4-enoic acid (1-carbamoyl-2-phenyl-ethyl)-amide]
Ki (KOR; [1]): 6100 ± 3000 nM
Ki KOR/Ki MOR (KOR): 16
Ki (hMOR-1; [2]): 370 ± 150 nM
Ki (hDOR-1; [3]): 2200 ± 100 nM
Ki DOR/Ki MOR (hDOR-1): 6

NC(=O)C(Cc1ccccc1)NC(=O)C(Cc1ccccc1)C(O)/C=C\CC(O)C(N)Cc1ccc(O)cc1 (single isomer, unassigned) [(S,S,R,R)-9, (Z)-8-Amino-2-benzyl-3,7-dihydroxy-9-(4-hydroxy-phenyl)-non-4-enoic acid (1-carbamoyl-2-phenyl-ethyl)-amide]
Ki (KOR; [1]): 1600 ± 100 nM
Ki KOR/Ki MOR (KOR): 22
Ki (hMOR-1; [2]): 74 ± 12 nM
Ki (hDOR-1; [3]): 4300 ± 1400 nM
Ki DOR/Ki MOR (hDOR-1): 58

NC(=O)C(Cc1ccccc1)NC(=O)C(Cc1ccccc1)C(O)CCCC(O)C(N)Cc1ccc(O)cc1 (single isomer, unassigned) [(S,R,R,R)-6, 8-Amino-2-benzyl-3,7-dihydroxy-9-(4-hydroxy-phenyl)-nonanoic acid (1-carbamoyl-2-phenyl-ethyl)-amide]
Ki (KOR; read-out: Ki KOR): 1500 ± 700 nM
Ki (hMOR-1; read-out: Ki MOR): 120 ± 30 nM

NC(Cc1ccc(O)cc1)C(O)C/C=C/C(O)C(Cc1ccccc1)C(=O)NCCc1ccccc1 (single isomer, unassigned) [(S,R,R,R)-10, (E)-8-Amino-2-benzyl-3,7-dihydroxy-9-(4-hydroxy-phenyl)-non-4-enoic acid phenethyl-amide]
Ki (KOR; [1]): 2800 ± 600 nM
Ki KOR/Ki MOR (KOR): 53
Ki (hMOR-1; [2]): 53 ± 6 nM
Ki (hDOR-1; [3]): 2900 ± 600 nM
Ki DOR/Ki MOR (hDOR-1): 55

NC(=O)C(Cc1ccccc1)NC(=O)C(Cc1ccccc1)C(O)/C=C/CC(O)C(N)Cc1ccc(O)cc1 (single isomer, unassigned) [(S,R,S,R)-2, (E)-8-Amino-2-benzyl-3,7-dihydroxy-9-(4-hydroxy-phenyl)-non-4-enoic acid (1-carbamoyl-2-phenyl-ethyl)-amide]
Ki (KOR; [1]): 2900 ± 800 nM
Ki KOR/Ki MOR (KOR): 18
Ki (hMOR-1; [2]): 160 ± 40 nM
Ki (hDOR-1; [3]): 850 ± 30 nM
Ki DOR/Ki MOR (hDOR-1): 5

NC(=O)C(Cc1ccccc1)NC(=O)C(Cc1ccccc1)C(O)CCCC(O)C(N)Cc1ccc(O)cc1 (single isomer, unassigned) [(S,S,R,R)-6, 8-Amino-2-benzyl-3,7-dihydroxy-9-(4-hydroxy-phenyl)-nonanoic acid (1-carbamoyl-2-phenyl-ethyl)-amide]
Ki (KOR; read-out: Ki KOR): 730 ± 270 nM
Ki (hMOR-1; [2]): 95 ± 61 nM
Ki (hDOR-1; read-out: Ki DOR): 3000 ± 100 nM

C=CC(O)C(Cc1ccccc1)NC(=O)C(Cc1ccccc1)C(O)/C=C/CC(O)C(N)Cc1ccc(O)cc1 (single isomer, unassigned) [(S,S,S,R)-12, (E)-8-Amino-2-benzyl-3,7-dihydroxy-9-(4-hydroxy-phenyl)-non-4-enoic acid (1-benzyl-2-hydroxy-but-3-enyl)-amide]
Ki (KOR; [1]): 1050 ± 10 nM
Ki KOR/Ki MOR (KOR): 53
Ki (hMOR-1; [2]): 20 ± 1 nM
Ki (hDOR-1; [3]): 680 ± 40 nM
Ki DOR/Ki MOR (hDOR-1): 34

NC(=O)C(Cc1ccccc1)NC(=O)C(Cc1ccccc1)C(O)/C=C\CC(O)C(N)Cc1ccc(O)cc1 (single isomer, unassigned) [(S,R,R,R)-9, (Z)-8-Amino-2-benzyl-3,7-dihydroxy-9-(4-hydroxy-phenyl)-non-4-enoic acid (1-carbamoyl-2-phenyl-ethyl)-amide]
Ki (KOR; [1]): 5800 ± 1800 nM
Ki KOR/Ki MOR (KOR): 15
Ki (hMOR-1; [2]): 400 ± 110 nM
Ki (hDOR-1; [3]): 9200 ± 2100 nM
Ki DOR/Ki MOR (hDOR-1): 23

NC(=O)C(Cc1ccccc1)NC(=O)C(Cc1ccccc1)C(O)/C=C/CC(O)C(N)Cc1ccc(O)cc1 (single isomer, unassigned) [(S,S,R,S)-2, (E)-8-Amino-2-benzyl-3,7-dihydroxy-9-(4-hydroxy-phenyl)-non-4-enoic acid (1-carbamoyl-2-phenyl-ethyl)-amide]
Ki (KOR; [1]): 1300 ± 100 nM
Ki KOR/Ki MOR (KOR): 16
Ki (hMOR-1; [2]): 79 ± 23 nM
Ki (hDOR-1; [3]): 6900 ± 1300 nM
Ki DOR/Ki MOR (hDOR-1): 86
